Data from patent publication US20130252890A1, “6,7-DIHYDRO-5H-BENZO[7]ANNULENE DERIVATIVES, PROCESS FOR PREPARATION THEREOF, PHARMACEUTICAL PREPARATIONS COMPRISING THEM, AND THE USE THEREOF FOR PRODUCTION OF MEDICAMENTS” (BAYER INTELLECTUAL PROPERTY GMBH, priority 2010, published 2013).

Biological target: T1, oestrogen receptor (ER) (Homo sapiens, UniProt P03372)
T1 construct: These MVLN cells express, along with the functional oestrogen receptor (ER), a reporter construct; endogenous in cells; host or cells: MVLN cells (MCF7 derivative carrying a luciferase reporter construct)
T1 sequence (P03372 1-595): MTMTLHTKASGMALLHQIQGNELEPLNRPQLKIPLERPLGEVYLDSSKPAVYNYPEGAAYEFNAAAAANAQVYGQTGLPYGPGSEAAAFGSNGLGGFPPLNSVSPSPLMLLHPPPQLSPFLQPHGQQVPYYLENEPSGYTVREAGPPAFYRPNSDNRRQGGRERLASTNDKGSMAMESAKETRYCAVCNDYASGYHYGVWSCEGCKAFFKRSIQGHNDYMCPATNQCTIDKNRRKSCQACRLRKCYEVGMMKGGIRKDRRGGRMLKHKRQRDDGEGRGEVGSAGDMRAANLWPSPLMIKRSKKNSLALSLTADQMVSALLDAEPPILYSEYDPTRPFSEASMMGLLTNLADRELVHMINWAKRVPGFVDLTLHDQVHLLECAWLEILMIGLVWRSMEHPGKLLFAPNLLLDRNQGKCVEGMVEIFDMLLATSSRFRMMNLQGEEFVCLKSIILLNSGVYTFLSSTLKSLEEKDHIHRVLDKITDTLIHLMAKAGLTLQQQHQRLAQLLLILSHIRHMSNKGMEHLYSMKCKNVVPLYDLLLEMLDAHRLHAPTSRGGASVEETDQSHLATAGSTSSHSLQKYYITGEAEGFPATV
Assay: Anti-oestrogenic action in MVLN cells (inhibition of estradiol-induced luciferase)
Type: cell-based
Conditions: inhibition of estradiol-induced luciferase signal, value of Ex. 44 is a mean value, read-out: Antioestrogenic action in vitro: MVLN transactivation antagonism IC50
In short: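 MVLN cells, MCF7 breast cancer derivatives carrying functional ER plus an ER-activated luciferase reporter, were treated with compounds in the presence of estradiol. Anti-oestrogenic activity taken as inhibition of the estradiol-induced luciferase signal.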

Structure (SMILES)	IC50
O=S(=O)(CCCN(CCO)CCCCCCC1=C(c2ccc(F)cc2)CCCc2c1ccc(O)c2F)CCC(F)(F)F [Example 61, 4-Fluoro-8-(4-fluorophenyl)-9-{6-[(2-hydroxyethyl){3-[(3,3,3-trifluoropropyl)sulphonyl]propyl}amino]hexyl}-6,7-dihydro-5H-benzo[7]annulen-3-ol]	24 nM
O=S(=O)(CCCN(CCCO)CCCCCCC1=C(c2ccc(F)cc2)CCCc2cc(O)ccc21)CCCC(F)(F)C(F)(F)F [Example 55, 8-(4-Fluorophenyl)-9-{6-[(3-hydroxypropyl){3-[(4,4,5,5,5-pentafluoropentyl)sulphonyl]propyl}amino]hexyl}-6,7-dihydro-5H-benzo[7]annulen-3-ol]	22 nM
O=C(CN(CCCCCCC1=C(c2ccc(F)cc2)CCCc2cc(O)ccc21)CCCCS(=O)(=O)CCCC(F)(F)F)OCc1ccccc1 [Example 81, Benzyl-N-{6-[8-(4-fluorophenyl)-3-hydroxy-6,7-dihydro-5H-benzo[7]annulen-9-yl]hexyl}-N-{4-[(4,4,4-trifluorobutyl)sulphonyl]butyl}glycinate]	40 nM
CC(=O)N(CCCCCCC1=C(c2ccc(F)cc2)CCCc2cc(O)ccc21)CCCCS(=O)(=O)CCCC(F)(F)F [Example 89, N-{6-[8-(4-Fluorophenyl)-3-hydroxy-6,7-dihydro-5H-benzo[7]annulen-9-yl]hexyl}-N-{4-[(4,4,4-trifluorobutyl)sulphonyl]butyl}acetamide]	54 nM
CN(CCCCCCC1=C(c2ccc(F)cc2F)CCCc2cc(O)ccc21)CCCS(=O)(=O)CCC(F)(F)C(F)(F)F [Example 145, 8-(2,4-Difluorophenyl)-9-[6-(methyl{3-[(3,3,4,4,4-pentafluorobutyl)sulphonyl]propyl}amino)hexyl]-6,7-dihydro-5H-benzo[7]annulen-3-ol]	22 nM

Now those with a lower IC50, led by results:

IC50	Structure (SMILES)
21 nM	O=C(O)CCCN(CCCCCCC1=C(c2ccc(F)cc2)CCCc2cc(O)ccc21)CCCCS(=O)(=O)CCCC(F)(F)F [Example 96, 4-({6-[8-(4-Fluorophenyl)-3-hydroxy-6,7-dihydro-5H-benzo[7]annulen-9-yl]hexyl}{4-[(4,4,4-trifluorobutyl)sulphonyl]butyl}amino)butanoic acid]
13 nM	CN(CCCCCCC1=C(c2ccc(F)cc2)CCCc2c1ccc(O)c2F)CCC[S+]([O-])CCCC(F)(F)C(F)(F)F (centres unmarked) [Example 42, 4-Fluoro-8-(4-fluorophenyl)-9-[6-(methyl{3-[(4,4,5,5,5-pentafluoropentyl)sulphinyl]propyl}amino)hexyl]-6,7-dihydro-5H-benzo[7]annulen-3-ol]
9 nM	CN(CCCCCCC1=C(c2cc(F)ccc2F)CCCc2cc(O)ccc21)CCCCS(=O)(=O)CCCC(F)(F)F [Example 143, 8-(2,5-Difluorophenyl)-9-[6-(methyl{4-[(4,4,4-trifluorobutyl)sulphonyl]butyl}amino)hexyl]-6,7-dihydro-5H-benzo[7]annulen-3-ol]
7 nM	CN(CCCCCCC1=C(c2ccc(F)cc2F)CCCc2cc(O)ccc21)CCCCCS(=O)(=O)CCC(F)(F)F [Example 133, 8-(2,4-Difluorophenyl)-9-[6-(methyl{5-[(3,3,3-trifluoropropyl)sulphonyl]pentyl}amino)hexyl]-6,7-dihydro-5H-benzo[7]annulen-3-ol]
6 nM	CN(CCCCCCC1=C(c2ccc(F)cc2F)CCCc2cc(O)ccc21)CCCS(=O)(=O)CCCC(F)(F)C(F)(F)F [Example 128, 8-(2,4-Difluorophenyl)-9-[6-(methyl{3-[(4,4,5,5,5-pentafluoropentyl)sulphonyl]propyl}amino)hexyl]-6,7-dihydro-5H-benzo[7]annulen-3-ol]
5 nM	CN(CCCCCCC1=C(c2ccc(F)cc2F)CCCc2cc(O)ccc21)CCCS(=O)(=O)CCCC(F)(F)F [Example 134, 8-(2,4-Difluorophenyl)-9-[6-(methyl{3-[(4,4,4-trifluorobutyl)sulphonyl]propyl}amino)hexyl]-6,7-dihydro-5H-benzo[7]annulen-3-ol]
